Among the test systems are ACHN; MOLT-4; SK-OV-3; TK-10; EKVX; NCI/ADR-RES; Hs-578T; SF-295; OVCAR-3; HCT-116; NCI-H460; OVCAR-5; HT-29; NCI-H23; T47D; UACC-62; HCT-15; RPMI-8226; IGROV-1; A498.
Assay in all cases: NCI anticancer screen, dose series, 48 h

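How tested: cells in 96-well plates exposed to compound for 48 hours at five concentrations. At the GI50, growth is halved.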 Calls of active or inactive are those of the source. Rule as the data show it: active = GI50 up to about 1.1 µM and inactive = higher. Bridge positions count the residues as written; N and C are the ends. Square brackets hold non-standard residues; d marks the D form. Peptide text beside a SMILES is read from it. * marks the point of attachment. Cya = N[CH](CS(=O)(=O)O)C(=O)O; X49 = CC(C)CCCCCCCC(O)CC(=O)*; GABA = NCCCC(=O)O

For `CC(C)C1CCC(=O)CC1CCCCC1CC(=O)CC1O[Si](C)(C)C(C)(C)C` (stereo not given), the GI50 was 4.3 µM (inactive) with ACHN; 1.89 µM (inactive) with MOLT-4; 11.9 µM (inactive) with SK-OV-3; 10.5 µM (inactive) with TK-10; 15.7 µM (inactive) in the assay with EKVX; 4.25 µM (inactive) with NCI/ADR-RES. The GI50 in the assay with Hs-578T is 3.03 µM (inactive); with SF-295, 9.62 µM (inactive); in the assay on OVCAR-3, 14.4 µM (inactive); in the assay on HCT-116, 3.18 µM (inactive); in the assay on NCI-H460, 7.46 µM (inactive); with OVCAR-5, 11.1 µM (inactive). In addition, the GI50 with HT-29 is 3 µM (inactive); in the assay on NCI-H23, 15.5 µM (inactive); in the assay with T47D it was 14.2 µM (inactive); in the assay on UACC-62, 4.45 µM (inactive); with HCT-15, 3.44 µM; in the assay with RPMI-8226, 1.95 µM (inactive). Further, the figures for the GI50 with IGROV-1 and with A498 were 2.84 µM (inactive) and 8.09 µM (inactive), respectively.

On to `O=C1CCCC2=C1CC1=C(CCCC1=O)N2c1ccc(-c2ccccc2)cc1`, for which the GI50 with ACHN was > 100 µM (inactive); in the assay with MOLT-4, > 100 µM (inactive); in the assay with SK-OV-3, > 76.9 µM (inactive); in the assay with TK-10, > 75 µM (inactive); with EKVX, > 100 µM (inactive); in the assay on NCI/ADR-RES, > 100 µM (inactive). For the same compound, the GI50 with Hs-578T was 43.2 µM (inactive); with SF-295, > 100 µM (inactive); in the assay with OVCAR-3, > 100 µM (inactive); in the assay with HCT-116, > 100 µM (inactive); in the assay on NCI-H460, > 100 µM (inactive); in the assay on OVCAR-5 it was > 100 µM (inactive). Also, the GI50 in the assay on HT-29 was > 100 µM (inactive); in the assay with NCI-H23, > 100 µM (inactive); in the assay on T47D it was > 100 µM (inactive); in the assay on UACC-62, > 66.5 µM (inactive); in the assay with HCT-15 it was more than 100 µM; in the assay with RPMI-8226 it was > 100 µM (inactive). Moreover, the GI50 in the assay with IGROV-1 and with A498 was > 100 µM (inactive) in each case.

In the case of `C=CCNC1=C2C[C@@H](C)C[C@@H](OC)C(OC(=O)CCCN(C)C)[C@H](C)/C=C(\C)[C@@H](OC(N)=O)[C@H](OC)/C=C\C=C(/C)C(=O)NC(=CC1=O)C2=O` (stereo not given in full), the GI50 with ACHN was 7.48 µM (inactive); with MOLT-4, 5.75 µM (inactive); with SK-OV-3, 2.37 µM (inactive); with TK-10, 11.6 µM (inactive); in the assay on EKVX it was 13.1 µM (inactive); in the assay with NCI/ADR-RES it was 21.8 µM (inactive). In addition, the GI50 with Hs-578T was 17.5 µM (inactive); in the assay with SF-295 it was 7.57 µM (inactive); with OVCAR-3 it was 3.3 µM (inactive); in the assay with HCT-116, 7.13 µM (inactive); in the assay with NCI-H460, 2.99 µM (inactive); with OVCAR-5 it was 15.2 µM (inactive). The GI50 with HT-29 is 2.7 µM (inactive); with NCI-H23, 6.84 µM (inactive); in the assay on T47D it was 11.5 µM (inactive); with UACC-62 it was 12.4 µM (inactive); with HCT-15, 6.32 µM; with RPMI-8226, 6.49 µM (inactive). For the same compound, the GI50 with IGROV-1 was 8.95 µM (inactive); in the assay on A498, 13.8 µM (inactive).

For `CC(C)CCCCCCCC(O)CC(=O)NC(CS(=O)(=O)O)C(=O)NC(CC(C)C)C(=O)NCCCC(=O)NC(Cc1c[nH]cn1)C(=O)NC(C)C(=O)NC1C(=O)NC(C(C)O)C(=O)NC(Cc2c[nH]cn2)C(=O)NC(C)C(=O)NC(C(C)O)C(=O)OC1C` (stereo not given) (X49-[Cya]L[GABA]HATTHAT; ester 6-C; configuration not given here), the GI50 in the assay with ACHN, in the assay on MOLT-4, in the assay with SK-OV-3, with TK-10, in the assay with EKVX and in the assay on NCI/ADR-RES was > 25 µM (inactive) each time. In addition, the GI50 in the assay on Hs-578T, in the assay with SF-295, in the assay on OVCAR-3, in the assay with HCT-116, with NCI-H460 and in the assay on OVCAR-5 was > 25 µM (inactive) in each case. Also, the GI50 in the assay on HT-29 was > 25 µM (inactive); with NCI-H23, > 25 µM (inactive); in the assay on T47D, > 25 µM (inactive); in the assay on UACC-62, > 25 µM (inactive); with HCT-15, more than 25 µM; in the assay with RPMI-8226, > 25 µM (inactive). Also, the GI50 with IGROV-1 and with A498 was > 25 µM (inactive) throughout.

On to `CN(C)CC1CCC/C(=C\c2ccc(N(C)C)cc2)C1=O` (stereo not given), for which the GI50 in the assay with ACHN is 19.8 µM (inactive); in the assay on MOLT-4, 4.97 µM (inactive); in the assay on SK-OV-3 it was 17.8 µM (inactive); in the assay on TK-10, 1.97 µM (inactive); in the assay on EKVX, 16.7 µM (inactive); in the assay with NCI/ADR-RES, 25.9 µM (inactive). The GI50 in the assay on Hs-578T is 3.58 µM (inactive); with SF-295, 18.2 µM (inactive); with OVCAR-3, 2.84 µM (inactive); in the assay on HCT-116, 3.15 µM (inactive); in the assay with NCI-H460, 12 µM (inactive); in the assay with OVCAR-5 it was 13.9 µM (inactive). The GI50 with HT-29 was 2 µM (inactive); with NCI-H23 it was 15.1 µM (inactive); in the assay with T47D, 2.25 µM (inactive); with UACC-62, 15.8 µM (inactive); in the assay on HCT-15, 4.86 µM; in the assay with RPMI-8226, > 100 µM (inactive). Further, the figures for the GI50 in the assay on IGROV-1 and in the assay on A498 were 3.73 µM (inactive) and 17.1 µM (inactive), respectively.

For `CC(C)=CCC/C(C)=C/Cc1cc(/C=C/c2cc(O)c(CC=C(C)C)c(O)c2)cc(O)c1O` [MAPPAIN], the GI50 is 1.48 µM (inactive) in the assay on ACHN; 1.93 µM (inactive) in the assay with MOLT-4; 8.87 µM (inactive) with SK-OV-3; 3.32 µM (inactive) in the assay on TK-10; 2.96 µM (inactive) in the assay with EKVX; 3.15 µM (inactive) in the assay with NCI/ADR-RES. Moreover, the GI50 was 10.8 µM (inactive) in the assay on Hs-578T; 4.65 µM (inactive) in the assay on SF-295; 1.99 µM (inactive) in the assay with OVCAR-3; 3.37 µM (inactive) in the assay on HCT-116; 2.68 µM (inactive) in the assay on NCI-H460; 4.36 µM (inactive) with OVCAR-5. For the same compound, the GI50 in the assay on HT-29 is 4.18 µM (inactive); with NCI-H23, 3.31 µM (inactive); in the assay with T47D, 1.84 µM (inactive); in the assay on UACC-62 it was 2.7 µM (inactive); in the assay with HCT-15, 3.05 µM; in the assay with RPMI-8226, 0.506 µM (active). Besides, the GI50 was 1.76 µM (inactive) in the assay on IGROV-1 and 6.56 µM (inactive) with A498.

For `COC(=O)C(Cc1c[nH]c2ccccc12)NP(=O)(O)OCC1OC(n2cc(I)c(=O)[nH]c2=O)CC1O` (stereo not given), the GI50 in the assay on ACHN, with MOLT-4, in the assay on SK-OV-3, with TK-10, with EKVX and with NCI/ADR-RES was > 100 µM (inactive) throughout. The GI50 in the assay with Hs-578T, with SF-295, in the assay with OVCAR-3, in the assay on HCT-116, in the assay with NCI-H460 and in the assay with OVCAR-5 was > 100 µM (inactive) in each case. Besides, the GI50 in the assay on HT-29 was > 100 µM (inactive); in the assay with NCI-H23, > 100 µM (inactive); with T47D, > 100 µM (inactive); with UACC-62, > 100 µM (inactive); in the assay on HCT-15, more than 100 µM; in the assay with RPMI-8226, > 100 µM (inactive). The GI50 with IGROV-1 and in the assay with A498 was > 100 µM (inactive) throughout.

Turning to `Fc1sc2c(c1F)C1CCC2C1` (stereo not given), the GI50 with ACHN was > 100 µM (inactive); with MOLT-4 it was 34.6 µM (inactive); with SK-OV-3, > 100 µM (inactive); in the assay on TK-10, > 100 µM (inactive); with EKVX, > 100 µM (inactive); in the assay on NCI/ADR-RES it was 47.1 µM (inactive). Besides, the GI50 was 19.7 µM (inactive) in the assay with Hs-578T; > 100 µM (inactive) in the assay on SF-295; 41.9 µM (inactive) in the assay with OVCAR-3; 48.8 µM (inactive) with HCT-116; > 100 µM (inactive) in the assay with NCI-H460; > 100 µM (inactive) in the assay with OVCAR-5. For the same compound, the GI50 is 68.9 µM (inactive) with HT-29; 58.3 µM (inactive) in the assay with NCI-H23; 88.3 µM (inactive) with T47D; 51.8 µM (inactive) in the assay on UACC-62; 85.9 µM in the assay on HCT-15; 31.9 µM (inactive) with RPMI-8226. In addition, the results for the GI50 in the assay with IGROV-1 and with A498 were 51.2 µM (inactive) and > 100 µM (inactive), respectively.

On to `CC(Cl)CN1c2ccccc2Sc2ccc(Cl)cc21` (stereo not given), for which the GI50 in the assay with ACHN, in the assay with MOLT-4, with SK-OV-3, with TK-10, in the assay on EKVX and with NCI/ADR-RES was > 10 µM (inactive) each time. Moreover, the GI50 in the assay on Hs-578T, with SF-295, in the assay on OVCAR-3, in the assay on HCT-116, with NCI-H460 and in the assay on OVCAR-5 was > 10 µM (inactive) each time. For the same compound, the GI50 in the assay on HT-29 is > 10 µM (inactive); with NCI-H23 it was > 10 µM (inactive); in the assay with T47D it was > 10 µM (inactive); in the assay on UACC-62 it was > 10 µM (inactive); in the assay on HCT-15, more than 10 µM; with RPMI-8226, > 10 µM (inactive). Also, the GI50 with IGROV-1 and in the assay on A498 was > 10 µM (inactive) each time.

For the compound `CCOC(=O)/C(C(=O)Nc1ccc(F)cc1)=C(/N)N1CCCC1`, the GI50 in the assay with ACHN, in the assay on MOLT-4, in the assay with SK-OV-3, in the assay on TK-10, in the assay on EKVX and in the assay on NCI/ADR-RES was > 100 µM (inactive) in each case. In addition, the GI50 with Hs-578T, in the assay with SF-295, in the assay on OVCAR-3, in the assay on HCT-116, in the assay on NCI-H460 and in the assay on OVCAR-5 was > 100 µM (inactive) throughout. Moreover, the GI50 with HT-29 was > 100 µM (inactive); in the assay with NCI-H23 it was < 0.01 µM (active); in the assay with T47D, > 100 µM (inactive); with UACC-62 it was > 100 µM (inactive); with HCT-15 it was less than 0.01 µM; with RPMI-8226 it was > 100 µM (inactive). Further, the GI50 in the assay with IGROV-1 and in the assay with A498 was > 100 µM (inactive) in each case.

These data come from ChEMBL document CHEMBL1201862, “PubChem BioAssay data set” (2004).
